One experiment has as its target SPHK1 (Homo sapiens, UniProt Q9NYA1). Kind of experiment: Kinome profiling SPHK1. It is filed as biochemical. Conditions: read-out: Inhibitory activity SPHK1; for inhibition at 0.1 µM: 100 nM. On the procedure:
(§1) . The kinome-wide selectivity was determined following the methods previously reported by Mohedas et al., ACS Chem Biol 2013, 8, 1291-1302 and Sanvitale et al., PLoS One 2013, 8, e62721.

Another experiment deals with RET (Homo sapiens, UniProt P07949). Kind of experiment: Kinome profiling RET. Format: biochemical. The conditions noted are these: read-out: Inhibitory activity RET; for inhibition at 0.1 µM: 100 nM. On the procedure: as §1
Chain of RET (P07949 29-1114): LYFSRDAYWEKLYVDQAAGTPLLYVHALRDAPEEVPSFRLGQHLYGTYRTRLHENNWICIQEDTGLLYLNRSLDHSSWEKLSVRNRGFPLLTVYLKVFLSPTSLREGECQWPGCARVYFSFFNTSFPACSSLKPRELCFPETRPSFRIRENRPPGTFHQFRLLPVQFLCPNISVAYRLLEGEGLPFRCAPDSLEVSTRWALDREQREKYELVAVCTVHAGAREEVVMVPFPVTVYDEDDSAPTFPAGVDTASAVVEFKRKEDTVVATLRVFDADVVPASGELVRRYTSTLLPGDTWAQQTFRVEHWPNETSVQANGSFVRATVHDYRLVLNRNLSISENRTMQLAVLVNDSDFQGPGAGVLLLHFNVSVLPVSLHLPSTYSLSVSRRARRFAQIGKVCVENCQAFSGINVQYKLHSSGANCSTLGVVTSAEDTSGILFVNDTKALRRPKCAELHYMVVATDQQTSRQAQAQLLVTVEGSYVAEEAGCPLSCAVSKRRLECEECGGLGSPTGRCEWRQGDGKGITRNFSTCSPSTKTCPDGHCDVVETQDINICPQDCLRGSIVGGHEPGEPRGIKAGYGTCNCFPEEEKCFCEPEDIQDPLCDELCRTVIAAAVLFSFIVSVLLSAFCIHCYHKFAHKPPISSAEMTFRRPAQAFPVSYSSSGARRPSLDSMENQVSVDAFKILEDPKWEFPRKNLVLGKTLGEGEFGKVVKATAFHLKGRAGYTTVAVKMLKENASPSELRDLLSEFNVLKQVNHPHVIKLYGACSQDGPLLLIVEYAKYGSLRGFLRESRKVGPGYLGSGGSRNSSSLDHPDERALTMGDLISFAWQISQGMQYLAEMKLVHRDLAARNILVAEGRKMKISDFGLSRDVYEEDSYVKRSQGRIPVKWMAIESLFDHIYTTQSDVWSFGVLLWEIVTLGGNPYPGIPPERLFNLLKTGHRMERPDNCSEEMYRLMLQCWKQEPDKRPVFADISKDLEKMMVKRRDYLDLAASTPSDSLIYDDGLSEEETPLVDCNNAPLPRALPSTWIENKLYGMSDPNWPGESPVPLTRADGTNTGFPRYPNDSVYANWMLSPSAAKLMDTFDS
The target in the next experiment is BTK (Homo sapiens, UniProt Q06187). Kind of experiment: Kinome profiling BTK. Format: biochemical. Conditions: read-out: Inhibitory activity BTK; for inhibition at 0.1 µM: 100 nM. On the procedure: as §1
Chain of BTK (Q06187 whole entry): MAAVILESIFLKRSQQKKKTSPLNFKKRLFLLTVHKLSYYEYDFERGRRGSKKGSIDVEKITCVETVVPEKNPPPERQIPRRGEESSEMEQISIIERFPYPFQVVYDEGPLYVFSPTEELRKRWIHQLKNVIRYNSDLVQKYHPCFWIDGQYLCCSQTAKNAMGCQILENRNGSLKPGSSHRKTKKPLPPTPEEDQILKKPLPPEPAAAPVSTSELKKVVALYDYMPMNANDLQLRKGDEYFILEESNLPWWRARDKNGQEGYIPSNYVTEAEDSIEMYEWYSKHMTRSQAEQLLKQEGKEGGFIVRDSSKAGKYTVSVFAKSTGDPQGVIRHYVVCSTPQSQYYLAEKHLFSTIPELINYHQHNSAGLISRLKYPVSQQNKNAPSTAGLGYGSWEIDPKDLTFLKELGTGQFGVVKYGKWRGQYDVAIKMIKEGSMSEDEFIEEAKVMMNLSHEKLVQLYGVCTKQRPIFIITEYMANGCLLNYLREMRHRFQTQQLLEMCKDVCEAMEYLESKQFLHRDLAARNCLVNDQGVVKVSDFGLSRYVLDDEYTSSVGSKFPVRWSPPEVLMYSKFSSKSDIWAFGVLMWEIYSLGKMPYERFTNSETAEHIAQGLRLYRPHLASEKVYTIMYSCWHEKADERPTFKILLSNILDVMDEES
For the next experiment, the target named is T1, ALK2 (Homo sapiens, UniProt Q04771, Q207D).
T1 construct: His tag (TEV-cleavable) (N, cleaved yes); made in house; host or cells: Sf9 insect cells (baculovirus)
T1 sequence (Q04771 201-499 Q207D): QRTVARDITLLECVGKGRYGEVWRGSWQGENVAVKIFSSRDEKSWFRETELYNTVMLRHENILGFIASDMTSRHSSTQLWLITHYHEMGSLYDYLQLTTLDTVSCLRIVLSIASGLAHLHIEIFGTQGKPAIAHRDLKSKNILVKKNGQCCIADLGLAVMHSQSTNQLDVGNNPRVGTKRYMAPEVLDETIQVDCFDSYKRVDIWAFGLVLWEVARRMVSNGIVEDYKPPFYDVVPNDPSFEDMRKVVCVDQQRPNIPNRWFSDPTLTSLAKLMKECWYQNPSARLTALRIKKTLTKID
Kind of experiment: Thermal shift kinase assay ALK2. The conditions noted are these: for ΔTm at 10 µM: 10 μM inhibitor; for ΔTmDiff.: ALK2 minus ALK5; for ΔT ALK2: Table 6; for ΔT Diff.: Table 6, ALK2 minus ALK5. It is filed as binding. The method in brief:
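Differential scanning fluorimetry on recombinant human kinase domains at 1-2 μM protein with 10 μM inhibitor, measuring ligand-induced shift in thermal melting temperature by real-time PCR instrument.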

Another experiment has as its target T2, ARK5 (Homo sapiens, UniProt O60285).
T2 sequence (O60285 1-661): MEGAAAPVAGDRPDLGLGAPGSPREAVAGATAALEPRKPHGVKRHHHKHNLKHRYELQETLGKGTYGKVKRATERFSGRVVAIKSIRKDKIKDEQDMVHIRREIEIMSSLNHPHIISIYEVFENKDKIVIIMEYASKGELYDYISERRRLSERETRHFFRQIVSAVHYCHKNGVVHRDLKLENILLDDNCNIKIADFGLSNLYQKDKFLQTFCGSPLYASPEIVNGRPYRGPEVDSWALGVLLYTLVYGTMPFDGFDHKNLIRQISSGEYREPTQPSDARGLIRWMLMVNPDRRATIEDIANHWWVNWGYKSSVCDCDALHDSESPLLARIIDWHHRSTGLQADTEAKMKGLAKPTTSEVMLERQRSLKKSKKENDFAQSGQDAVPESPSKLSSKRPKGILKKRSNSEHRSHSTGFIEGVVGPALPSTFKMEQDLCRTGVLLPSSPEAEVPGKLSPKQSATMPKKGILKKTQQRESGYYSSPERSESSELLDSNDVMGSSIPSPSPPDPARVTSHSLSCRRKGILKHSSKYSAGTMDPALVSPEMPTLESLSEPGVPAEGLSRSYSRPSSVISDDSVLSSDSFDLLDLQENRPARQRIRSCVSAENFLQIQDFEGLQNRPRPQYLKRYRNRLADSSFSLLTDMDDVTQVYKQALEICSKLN
Kind of experiment: Kinome profiling ARK5. Format: biochemical. Conditions: read-out: Inhibitory activity ARK5; for inhibition at 0.1 µM: 100 nM. On the procedure: as §1

In another experiment the target is FGFR4 (Homo sapiens, UniProt P22455). Kind of experiment: Kinome profiling FGFR4. It is filed as biochemical. Conditions: read-out: Inhibitory activity FGFR4; for inhibition at 0.1 µM: 100 nM. Here is the method:
as §1

Another experiment deals with PHKγ1 (Homo sapiens, UniProt Q16816). Kind of experiment: Kinome profiling PHKγ1. Format: biochemical. Conditions: read-out: Inhibitory activity PHKγ1; for inhibition at 0.1 µM: 100 nM. On the procedure: as §1
Chain of PHKγ1 (Q16816 whole entry): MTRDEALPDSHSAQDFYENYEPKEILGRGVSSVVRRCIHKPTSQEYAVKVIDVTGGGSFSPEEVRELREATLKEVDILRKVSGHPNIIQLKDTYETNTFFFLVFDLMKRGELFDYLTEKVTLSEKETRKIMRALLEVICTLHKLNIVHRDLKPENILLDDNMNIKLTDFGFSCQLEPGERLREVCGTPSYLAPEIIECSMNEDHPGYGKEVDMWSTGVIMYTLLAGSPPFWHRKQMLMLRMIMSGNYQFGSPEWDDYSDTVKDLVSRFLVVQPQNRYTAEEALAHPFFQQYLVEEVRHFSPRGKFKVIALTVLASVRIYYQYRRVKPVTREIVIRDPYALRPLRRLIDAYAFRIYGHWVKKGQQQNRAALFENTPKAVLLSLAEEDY
The target of a further experiment is ALK (Homo sapiens, UniProt Q9UM73). Kind of experiment: Kinome profiling ALK. It is filed as biochemical. Conditions: read-out: Inhibitory activity ALK; for inhibition at 0.1 µM: 100 nM. Here is the method:
as §1

The target of the next experiment is PAK5 (Homo sapiens, UniProt Q9P286). Kind of experiment: Kinome profiling PAK5. It is filed as biochemical. Conditions: read-out: Inhibitory activity PAK5; for inhibition at 0.1 µM: 100 nM. Here is the method:
as §1

In another experiment the target is T3, TBK1 (Homo sapiens, UniProt Q9UHD2).
T3 sequence (Q9UHD2 1-729): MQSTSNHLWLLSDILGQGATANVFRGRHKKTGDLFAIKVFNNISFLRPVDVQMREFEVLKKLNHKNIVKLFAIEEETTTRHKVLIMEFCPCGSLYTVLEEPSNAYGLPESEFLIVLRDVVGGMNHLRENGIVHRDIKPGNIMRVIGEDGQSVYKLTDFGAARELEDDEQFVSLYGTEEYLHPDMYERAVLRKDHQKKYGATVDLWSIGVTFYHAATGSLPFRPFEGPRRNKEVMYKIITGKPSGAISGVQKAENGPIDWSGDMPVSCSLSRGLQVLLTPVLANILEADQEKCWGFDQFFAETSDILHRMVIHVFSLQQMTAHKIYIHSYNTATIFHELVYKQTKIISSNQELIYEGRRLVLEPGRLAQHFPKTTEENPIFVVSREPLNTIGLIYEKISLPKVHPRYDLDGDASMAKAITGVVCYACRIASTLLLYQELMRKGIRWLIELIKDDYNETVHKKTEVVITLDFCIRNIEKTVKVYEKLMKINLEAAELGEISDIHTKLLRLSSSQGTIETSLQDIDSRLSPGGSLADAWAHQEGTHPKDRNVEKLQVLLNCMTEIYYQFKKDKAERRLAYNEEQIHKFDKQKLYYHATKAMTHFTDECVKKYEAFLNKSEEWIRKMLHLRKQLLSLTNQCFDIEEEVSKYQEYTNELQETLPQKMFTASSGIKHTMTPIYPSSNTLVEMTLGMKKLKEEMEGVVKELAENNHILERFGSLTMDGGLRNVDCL
Kind of experiment: Kinome profiling TBK1. The conditions noted are these: read-out: Inhibitory activity TBK1; for inhibition at 0.1 µM: 100 nM. Format: biochemical. Here is the method: as §1

Chain of SPHK1 (Q9NYA1 whole entry): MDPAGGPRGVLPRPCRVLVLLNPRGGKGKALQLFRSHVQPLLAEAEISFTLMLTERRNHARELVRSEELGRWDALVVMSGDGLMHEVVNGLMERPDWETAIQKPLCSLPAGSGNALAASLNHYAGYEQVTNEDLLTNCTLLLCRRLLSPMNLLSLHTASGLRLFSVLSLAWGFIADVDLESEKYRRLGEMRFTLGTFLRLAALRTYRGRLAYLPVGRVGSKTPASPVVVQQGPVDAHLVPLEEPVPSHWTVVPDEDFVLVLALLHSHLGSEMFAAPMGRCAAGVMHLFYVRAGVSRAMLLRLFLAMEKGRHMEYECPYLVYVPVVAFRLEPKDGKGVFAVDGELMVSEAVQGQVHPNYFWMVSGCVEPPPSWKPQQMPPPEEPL
Chain of FGFR4 (P22455 22-802): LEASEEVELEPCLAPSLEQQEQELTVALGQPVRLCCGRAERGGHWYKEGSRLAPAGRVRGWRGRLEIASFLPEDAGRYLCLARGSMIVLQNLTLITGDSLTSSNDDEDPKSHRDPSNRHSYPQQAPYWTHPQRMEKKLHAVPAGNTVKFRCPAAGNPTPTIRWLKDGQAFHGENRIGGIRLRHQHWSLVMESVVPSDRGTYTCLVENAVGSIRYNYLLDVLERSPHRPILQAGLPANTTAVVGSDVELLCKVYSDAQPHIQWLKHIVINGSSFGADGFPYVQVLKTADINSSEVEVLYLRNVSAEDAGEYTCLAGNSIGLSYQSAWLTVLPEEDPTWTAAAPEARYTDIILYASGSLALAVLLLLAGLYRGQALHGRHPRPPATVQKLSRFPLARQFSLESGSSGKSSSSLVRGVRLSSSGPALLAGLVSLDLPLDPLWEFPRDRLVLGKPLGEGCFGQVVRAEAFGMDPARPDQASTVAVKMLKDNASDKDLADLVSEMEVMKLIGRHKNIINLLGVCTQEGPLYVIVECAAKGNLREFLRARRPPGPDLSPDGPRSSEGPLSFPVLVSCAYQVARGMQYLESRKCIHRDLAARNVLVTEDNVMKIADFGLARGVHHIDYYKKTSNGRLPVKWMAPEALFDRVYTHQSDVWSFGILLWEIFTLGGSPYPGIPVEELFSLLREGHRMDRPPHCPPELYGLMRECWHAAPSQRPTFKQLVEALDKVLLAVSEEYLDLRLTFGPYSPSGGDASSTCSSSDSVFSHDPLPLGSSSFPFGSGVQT
Chain of PAK5 (Q9P286 whole entry): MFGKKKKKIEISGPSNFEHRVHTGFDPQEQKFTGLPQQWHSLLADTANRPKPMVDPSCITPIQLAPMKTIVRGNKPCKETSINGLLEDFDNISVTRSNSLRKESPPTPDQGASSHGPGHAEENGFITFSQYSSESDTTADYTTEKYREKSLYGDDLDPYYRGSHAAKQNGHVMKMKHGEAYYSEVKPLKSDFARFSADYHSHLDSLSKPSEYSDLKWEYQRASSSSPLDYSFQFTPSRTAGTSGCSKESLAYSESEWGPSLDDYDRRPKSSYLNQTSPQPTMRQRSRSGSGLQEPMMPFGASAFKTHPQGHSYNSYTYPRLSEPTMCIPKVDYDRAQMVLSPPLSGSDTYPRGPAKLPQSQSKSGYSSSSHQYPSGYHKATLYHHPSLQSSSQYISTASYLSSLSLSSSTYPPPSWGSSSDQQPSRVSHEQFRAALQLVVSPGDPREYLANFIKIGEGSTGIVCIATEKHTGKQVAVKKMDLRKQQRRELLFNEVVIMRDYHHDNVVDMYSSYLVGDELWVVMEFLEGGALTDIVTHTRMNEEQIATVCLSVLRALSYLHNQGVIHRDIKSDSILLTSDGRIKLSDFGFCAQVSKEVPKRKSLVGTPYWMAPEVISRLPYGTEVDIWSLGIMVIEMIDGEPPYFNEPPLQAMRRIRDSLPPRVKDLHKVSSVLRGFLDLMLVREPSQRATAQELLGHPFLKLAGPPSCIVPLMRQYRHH

Take `COc1cc(-c2cc(-c3ccc(N4CCNCC4)cc3)cnc2N)cc(OC)c1OC` [Compound 15, 5-(4-(piperazin-1-yl)phenyl)-3-(3,4,5-trimethoxyphenyl)pyridin-2-amine]: the inhibition at 0.1 µM at SPHK1 was found to be 2%; at RET, 8%; on BTK, 3%; at ARK5, 2%; at FGFR4, 1%; at PHKγ1, 3%. For the same compound, the inhibition at 0.1 µM on ALK was 6%; on PAK5, 9%; on TBK1 it was 6%. Also, the inhibition at 1 µM on SPHK1 is -12%; on RET, 8%; at BTK, 20%; at ARK5, 8%; on FGFR4, 0%; on PHKγ1 it was 4%. Also, the inhibition at 1 µM at ALK was determined as 36%; on PAK5, 6%; at TBK1, 23%. The ΔTm (usually the change in melting temperature against a reference sample) at 10 µM at ALK2 is 15.1 °C. Besides, the ΔTmDiff. on ALK2 is recorded as 1.2. Also, the “ΔT ALK2” value at ALK2 was 15.1 °C. For the same compound, the “ΔT Diff.” value at ALK2 was determined as 1.2 °C.

Regarding `COc1cc(-c2cc(-c3ccc(N4CCNCC4)cc3)cnc2C)cc(OC)c1OC` [Compound 10, 1-(4-(6-methyl-5-(3,4,5-trimethoxyphenyl)pyridin-3-yl)phenyl)piperazine], the inhibition at 0.1 µM on SPHK1 turned out to be 0%; at RET it was 2%; on BTK, 1%; on ARK5 it was 1%; on FGFR4, 1%; on PHKγ1, 3%. The inhibition at 0.1 µM at ALK was 2%; on PAK5, 1%; on TBK1, 1%. Also, the inhibition at 1 µM was 0% on SPHK1; 2% on RET; -2% at BTK; 1% on ARK5; 2% at FGFR4; 3% at PHKγ1. For the same compound, the inhibition at 1 µM is 7% at ALK, 1% at PAK5 and 4% on TBK1. Also, the ΔTm at 10 µM at ALK2 was found to be 13.7 °C. Further, the ΔTmDiff. at ALK2 is 4.0. The “ΔT ALK2” value at ALK2 stood at 13.7 °C. The “ΔT Diff.” value at ALK2 worked out at 4.0 °C.

Source of the values: patent US20170190705A1, “Compositions and Methods for Inhibiting BMP” (THE BRIGHAM AND WOMAN'S HOSPITAL, INC., priority 2014, published 2017).
